Measured values: the NIST ThermoML archive (doi:10.1021/acs.jced.8b00855)
Numbers after ± are expanded uncertainties.

Assays:
[1] = Liquid, Ebulliometric method (Recirculating still)
[2] = Boiling temperature at pressure P; details: Liquid, Ebulliometric method (Recirculating still)

Structure (SMILES)	vapor or sublimation pressure ([1]; 403.4 K) [kPa]	vapor or sublimation pressure ([1]; 405.8 K) [kPa]	vapor or sublimation pressure ([1]; 408.4 K) [kPa]	vapor or sublimation pressure ([1]; 409.8 K) [kPa]	vapor or sublimation pressure ([1]; 413.4 K) [kPa]	Boiling temperature at pressure P ([2]; 71.47 kPa) [°C]	Boiling temperature at pressure P ([2]; 78.36 kPa) [°C]	Boiling temperature at pressure P ([2]; 85.5 kPa) [°C]	Boiling temperature at pressure P ([2]; 89.49 kPa) [°C]	Boiling temperature at pressure P ([2]; 102 kPa) [°C]	vapor or sublimation pressure ([1]; 367.9 K) [kPa]	vapor or sublimation pressure ([1]; 370.6 K) [kPa]	vapor or sublimation pressure ([1]; 373.6 K) [kPa]	vapor or sublimation pressure ([1]; 375.1 K) [kPa]	vapor or sublimation pressure ([1]; 379.3 K) [kPa]	Boiling temperature at pressure P ([2]; 72.04 kPa) [°C]	Boiling temperature at pressure P ([2]; 78.83 kPa) [°C]	Boiling temperature at pressure P ([2]; 85.94 kPa) [°C]	Boiling temperature at pressure P ([2]; 89.82 kPa) [°C]	Boiling temperature at pressure P ([2]; 101.39 kPa) [°C]
OC1CCCC1 [cyclopentanol]	71.5 ± 2.7	77.95 ± 2.8	85.5 ± 2.9	89.69 ± 3.3	101.79 ± 3.4	130.2 ± 1	133.1 ± 1	135.5 ± 1	136.2 ± 1	140.5 ± 1										
COC1CCCC1 [methoxycyclopentane]											71.5 ± 2.4	77.95 ± 2.5	85.5 ± 2.6	89.69 ± 2.9	101.79 ± 2.9	95.1 ± 1	98.1 ± 1	100.2 ± 1	102.2 ± 1	106.1 ± 1
